Results on 8 compounds are retold here after patent publication US8492376B2, “Heteroaryl-cyclohexyl-tetraazabenzo[e]azulenes” (Hoffmann-La Roche Inc., priority 2010, dated 2013).

The target in the assay is T1, human V1a receptor (Homo sapiens, UniProt P37288).
T1 construct: expressed in transfected cells; host or cells: HEK293 cells, transiently transfected; cell membranes
As to the kind of experiment: human V1a receptor binding studies (3H-Vasopressin, SPA beads). The following applies: membranes from HEK293 cells transiently transfected with human V1a receptor, Ki calculated from IC50 by the Cheng-Prussoff equation, read-out: pKi (hV1a) (converted). Put shortly: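 Membranes from HEK293 cells transiently expressing human V1a were bound to yttrium silicate SPA beads in Tris/NaCl/KCl/CaCl2/MgCl2 buffer. 3H-vasopressin (4 nM stock) and compound in 2% DMSO incubated 1 h at room temperature. Non-specific binding was defined with cold vasopressin; IC50 was converted to Ki by Cheng-Prusoff.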

T1 sequence (P37288 whole entry): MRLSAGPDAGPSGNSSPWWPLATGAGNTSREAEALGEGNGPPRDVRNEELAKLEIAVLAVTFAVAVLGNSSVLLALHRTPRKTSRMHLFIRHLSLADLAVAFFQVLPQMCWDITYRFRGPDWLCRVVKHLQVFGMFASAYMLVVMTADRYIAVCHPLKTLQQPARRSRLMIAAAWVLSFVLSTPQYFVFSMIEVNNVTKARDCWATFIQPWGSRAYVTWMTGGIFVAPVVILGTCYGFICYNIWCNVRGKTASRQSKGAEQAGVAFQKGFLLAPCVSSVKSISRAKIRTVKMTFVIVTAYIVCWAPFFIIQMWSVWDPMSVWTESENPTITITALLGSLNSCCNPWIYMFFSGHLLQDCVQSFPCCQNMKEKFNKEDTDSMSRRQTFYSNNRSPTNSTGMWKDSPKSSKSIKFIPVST

With `CC(C)(C)OC(=O)N1Cc2cc(Cl)ccc2-n2c(nnc2[C@H]2CC[C@H](c3ncccc3F)CC2)C1` [Example 28, trans-8-Chloro-1-[4-(3-fluoro-pyridin-2-yl)-cyclohexyl]-4H,6H-2,3,5,10b-tetraaza-benzo[e]azulene-5-carboxylic acid tert-butyl ester], the Ki is 0.2 nM.

As to `CC(C)N1Cc2cc(Cl)ccc2-n2c(nnc2[C@H]2CC[C@H](c3ncccc3F)CC2)C1` [Example 32, trans-8-Chloro-5-isopropyl-[4-(3-fluoro-pyridin-2-yl)-cyclohexyl]-5,6-dihydro-4H-2,3,5,10b-tetraaza-benzo[e]azulene], the Ki is 0.562 nM.

On to `Fc1cccnc1[C@H]1CC[C@H](c2nnc3n2-c2ccc(Cl)cc2CN(C2CCC2)C3)CC1` [Example 33, trans-8-Chloro-5-cyclobutyl-[4-(3-fluoro-pyridin-2-yl)-cyclohexyl]-5,6-dihydro-4H-2,3,5,10b-tetraaza-benzo[e]azulene], for which the Ki is 0.302 nM.

With `CN1Cc2cc(Cl)ccc2-n2c(nnc2[C@H]2CC[C@H](c3ncccc3F)CC2)C1` [Example 30, trans-8-Chloro-1-[4-(3-fluoro-pyridin-2-yl)-cyclohexyl]-5-methyl-5,6-dihydro-4H-2,3,5,10b-tetraaza-benzo[e]azulene], the Ki is 0.603 nM.

Turning to `Cc1cncc([C@H]2CC[C@H](c3nnc4n3-c3ccc(Cl)cc3CN(C(=O)OC(C)(C)C)C4)CC2)n1` [Example 72, trans-8-Chloro-1-[4-(6-methyl-pyrazin-2-yl)-cyclohexyl]-4H,6H-2,3,5,10b-tetraaza-benzo[e]azulene-5-carboxylic acid tert-butyl ester], the Ki is 1.2 nM.

As to `CN1Cc2cc(Cl)ccc2-n2c(nnc2[C@H]2CC[C@H](c3cccnc3Cl)CC2)C1` [Example 53, trans-8-Chloro-1-[4-(2-chloro-pyridin-3-yl)-cyclohexyl]-5-methyl-5,6-dihydro-4H-2,3,5,10b-tetraaza-benzo[e]azulene], the Ki was 13.8 nM.

Turning to `COCCN1Cc2cc(Cl)ccc2-n2c(nnc2[C@H]2CC[C@H](c3ncccc3F)CC2)C1` [Example 35, trans-8-Chloro-1-[4-(3-fluoro-pyridin-2-yl)-cyclohexyl]-5-(2-methoxy-ethyl)-5,6-dihydro-4H-2,3,5,10b-tetraaza-benzo[e]azulene], the Ki was 0.977 nM.

Turning to `Fc1ncccc1[C@H]1CC[C@H](c2nnc3n2-c2ccc(Cl)cc2CNC3)CC1` [Example 55, trans-8-Chloro-1-[4-(2-fluoro-pyridin-3-yl)-cyclohexyl]-5,6-dihydro-4H-2,3,5,10b-tetraaza-benzo[e]azulene], the Ki was 69.2 nM.
